Data from US20220028483A1, “SYSTEMS AND METHODS FOR CLASSIFYING TUMORS” (PRESIDENT AND FELLOWS OF HARVARD COLLEGE, priority 2018, published 2022).

System: breast cancer cell lines
Assay: Drug response (IC50, GDSC data) of breast cancer cell lines classified Signature 3-positive or -negative by SigMA
Type: cell-based
Details: five Signature 3-positive vs twelve Signature 3-negative breast cancer cell lines; p=0.044, Kolmogorov-Smirnov test
Text: To test the hypothesis that the presence of Signature 3 indicates susceptibility to PARP inhibition, the response of diverse cancer cell lines was examed to the two popular PARP inhibitors olaparib and velirapib (Supplementary Methods Section 12). The disclosed SigMA example algorithm was first applied to 700 cell lines from the Cancer Cell Line Encyclopedia (CCLE) project (Basu et al., 2013) to identify those with Signature 3. Mutation calls from a 1651-gene panel and copy number calls from single-nucleotide polymorphism (SNP) arrays were available for each cell line. In applying SigMA, a stringent filter was used to discriminate the cell lines with Signature 3 mutations from those without Signature 3 but with a large number of in vitro culture-associated mutations (Online Methods and Supplementary Methods Section 12). Also, cell lines with MSI signatures were removed to minimize their confounding effect (see Vilar Sanchez et al. (2009), and Supplementary FIG. 6f). […]
Among 1074 cell lines in total, the mutational spectra of 700 cell lines were analyzed of major tumor types with SigMA, but only 136 of these had drug response data for either olaparib or veliparib. […]

- fold decrease of IC50 values in Signature 3-positive vs Signature 3-negative cell lines: 2.6 fold
SMILES: O=C(c1cc(Cc2n[nH]c(=O)c3ccccc23)ccc1F)N1CCN(C(=O)C2CC2)CC1 [olaparib]
